In patent US20220296600A1, “USE OF A COMPOSITION COMPRISING 3,6,7-TRIMETHYLLUMAZINE FOR PREVENTING, AMELIORATING OR TREATING MMP-9 ASSOCIATED CONDITIONS AND INFLAMMATION” (COMVITA LIMITED, priority 2019, published 2022):

Legend:
recombinant MMP-9 enzyme [1] = molecular target: T1, recombinant MMP-9 enzyme (Homo sapiens, UniProt P14780); test: MMP-9 inhibitor screening assay (fluorometric); format: biochemical
T1 construct: purchased Abcam (Melbourne, Australia)
Procedure: The MMP-9 inhibitor screening assay (fluorometric) kits were purchased from Abcam (Melbourne, Australia). The fluorometric kit contains the recombinant MMP-9 enzyme, MMP inhibitor NNGH (N-isobutyl-N-[4-methoxyphenylsulfonyl]glycyl hydroxamic acid), MMP fluorogenic substrate solubilised in DMSO, the fluorometric assay buffer and 96-well clear microplate.
Inhibitory activity on MMP-9 was assessed using the commercial MMP-9 inhibitor screening assay kit. MMP-9 activity was expressed as a change in fluorescence intensity measured using SpectraMax iD3 multi-mode microplate reader (Molecular Devices, San Jose, USA).
The assay employs a FRET-tagged (fluorescence resonance energy transfer) substrate, which can be hydrolysed by MMP-9 at a specific site (Abcam, 2018). The cleavage of the FRET substrate releases the quenched fluorescent Mca (7- methoxycoumarin-4-yl)-acetyl group (Abcam, 2018). The kit employs a quenched fluorogenic substrate Mca-Pro-Leu-Gly-Leu-Dpa-Ala-Arg-NH2, where the Mca fluorescence is quenched by Dpa until cleavage by MMPs. The amount of fluorescent product yielded by MMP-9 can be detected fluorometrically and it is proportional to the enzyme activity. Fluorescence were measured at ex320 nm-em395 nm to minimise fluorescence interference from 3,6,7-trimethyllumazine at ex330 nm-em470 nm. Assays were performed on a 96-well clear microplate included in the kit with a final reaction volume of 100 µL. Before adding the substrate, MMP-9 enzymes were incubated with testing samples and inhibitor control for 60 min at 37° C. The fluorescent substrate was added into each well prior to the assay to initiate the reaction. The assay was allowed to run for 20 min and the temperature in the reaction chamber was set to 37° C.
Testing samples were prepared comprising 3,6,7-trimethyllumazine prepared as outlined above.
A positive control was included with only MMP-9 and the fluorescent substrate, used as a reference to calculate the percentage inhibition. A broad spectrum MMP inhibitor NNGH was included as the negative control. […]

recombinant MMP-9 enzyme [2] = molecular target: T1, recombinant MMP-9 enzyme; test: MMP-9 inhibitor screening assay (colorimetric); format: biochemical; conditions: read-out: percentage inhibition of MMP-9
Description: The MMP-9 inhibitor screening assay (colorimetric) kits were purchased from Abcam (Melbourne, Australia). The kit contains the recombinant MMP-9 enzyme, MMP inhibitor NNGH, MMP chromogenic substrate, the colorimetric assay buffer and 96-well clear microplate.
The colorimetric kit uses a thiopeptide as a chromogenic substrate (Ac-PLG- [2-mercapto-4-methyl-pentanoyl]-LG-[…]), which can be hydrolysed by MMPs to produce a sulfhydryl group. This intermediate product further reacts with DTNB [5,5′-dithiobis(2-nitrobenzoic acid), Ellman's reagent] to form 2-nitro-5-thiobenzoic acid, which can be detected by absorbance at 412 nm. The change in absorbance was measured using the SpectraMax iD3 multi-mode microplate reader (Molecular Devices, San Jose, USA). The assays are performed on a convenient 96-wells microplate with a final reaction volume of 100 μL. Prior to the assay, all testing samples and inhibitor controls were incubated with MMP-9 for 60 min at 37° C. […] The absorbance was measured at 1 min intervals during the first 20 min, then 10 min intervals till the end of assay.
Recombinant MMP-9 and the chromogenic substrate were used as the positive control to represent 100% enzyme activity. […] A range of 3,6,7-trimethyllumazine concentrations were diluted with the colorimetric assay buffer to measure the absorbance of the reaction product.

active MMP-9 = test: Gelatin gel zymography, active MMP-9 band; format: biochemical; conditions: active MMP-9 band (~37 kDa); supplemented developing buffer
Procedure: (§1) Novex™ 10% Zymogram Plus (Gelatin) Protein Gels (15 wells) were purchased from Thermo Fisher Scientific Inc. (Auckland, New Zealand). All chemicals required for the zymogram analysis were also purchased from Thermo Fisher, these include Novex™ Sharp Pre-stained Protein Standard, Novex Tris-Glycine SDS sample buffer, Novex Tris-Glycine SDS running buffer, Novex Zymogram renaturing buffer and Novex Zymogram developing buffer. […] Gelatin gel zymography was performed as an independent technique to confirm the inhibition of MMP-9 from 3,6,7-trimethyllumazine. This technique uses a non-reducing SDS-PAGE (sodium dodecyl sulfate polyacrylamide gel electrophoresis) gel embedded with gelatin. Proteins are migrated and separated during electrophoresis. The SDS is removed after electrophoresis and the gel is then incubated with essential cofactors required for enzymatic activity. The embedded gelatin can be digested by MMP-9, resulting in clear bands on a dark blue background after staining with Coomassie blue dyes. The gelatinase activity is represented by band densitometry, which can be assessed with image analysis software. […]
(§2) After incubation, the gelatin gel was rinsed with water for three times (5 min each) under gentle agitation. […] MMP-9 activities were analysed using densitometry on ImageJ Version 1.52a.

[3] = tested on: inactive MMP-9 (pro-MMP-9); test: Gelatin gel zymography, inactive (pro-)MMP-9 band; format: biochemical; conditions: inactive MMP-9 band; supplemented developing buffer
Procedure: as §1, §2

[4] = Simulated gastrointestinal digestion (SGF then SIF), 3,6,7-trimethyllumazine retention by HPLC; format: in vitro ADME; conditions: from four Manuka honey samples; 2 h gastric plus 4 h intestinal digestion
Procedure: The simulated gastrointestinal digestion was carried out using a static model. The simulated gastric fluid (SGF) and the simulated intestinal fluid (SIF) were prepared in accordance with a global consensus protocol (Minekus et al 2014). The SGF has a pH 3 to mimic the fed-state of the stomach. When mixed with Manuka honey (or a honey solution), the final mixture contains 2000 U/mL of pepsin. The SIF has pH 7 to mimic the fed-state of the small intestine, containing 2 mg/mL of pancreatin (8 x USP, or based on a protease activity of 200 U/mL) and 20 mM of porcine bile extract before use.
In the simulated gastric digestion, 2 g of Manuka honey was incubated in 2 mL of SGF at 37° C. under 95 rpm shaking for a period of 2 h (triplicates). At selected time points (0, 30, 60 and 120 min), a predetermined volume (0.1 mL) of the mixture was withdrawn for 3,6,7-trimethyllumazine analysis. […]
The gastric and intestinal digesta for 3,6,7-trimethyllumazine analysis was treated to remove insoluble fractions (e.g. pancreatin) before HPLC analysis. […] The amount of 3,6,7-trimethyllumazine at different time points was analysed using a reverse-phase HPLC system, which has been previously used to analyse 3,6,7-trimethyllumazine and leptosperin as reported in the literature (Bin Lin et al 2017). […] The signal of 3,6,7-trimethyllumazine was detected at 320 nm.

[5] = tested on: MMP-9 secretion in differentiated THP-1 cells; test: LPS induced MMP-9 secretion in differentiated THP-1 cells (ELISA); format: cell-based, human; conditions: LPS 1 μg/mL; for reduction of MMP-9 secretion: 24 hours
Procedure: THP-1 cells (ATCC, ATCTIB202) were grown in RPMI-1640 (Gibco, 11875093)+0.05 mM 2-mercaptoethanol+10% fetal calf serum (FCS)+1% pen-strep. For experiments, the cells were cultured in RPMI-1640 medium with 10% fetal bovine serum (FBS) only.
THP-1 monocyte cells were seeded at a density of 2.5×10^5 cells/ml in 96-well plates and differentiated into macrophages using 10 ng/ml of phorbol 12-myristate 13-acetate (PMA) (Bergin et al) (Sigma, P1585-1MG, Lot #SLBX889, 100% purity) for 72 hours. PMA media was then removed from the differentiated THP-1 cells, the cells were then washed once in RPMI-1640 media and then left to rest for ˜5 hours.
The differentiated THP-1 cells were stimulated with LPS from E. coli […] (Sigma, L6529; Lot#037K4068). LPS tested at a concentration of 1 μg/ml (Kong et al). The cells were incubated with LPS alone or in combination with 3,6,7-trimethyllumazine (received from University of Auckland and diluted in RPMI-1640 at a stock concentration of 1 mg/ml, stock was stored in fridge for 2 days before use) at a concentration range between 2.5-40 μg/ml. 6 μM Azithromycin (Sigma, Cat #75199-25MG, Lot#069M4826V) was used as a positive control (Vandooren et al). The cells were then incubated with the different treatments for 24 hours (Kong et al). After 24 hours, the cell culture media was collected and measured for MMP-9 concentration using MMP-9 ELISA (R&D systems, RDSDY91105 lot #P239459 and DY008 Lot #P239900). The cells were then incubated with WST-1 for cell viability.
This human MMP-9 assay measures the 92 kDa Pro-MMP-9 and the 82 kDa active MMP-9. […] This assay also recognizes human MMP-9 when complexed to Lipocalin-2/NGAL, isolated from human source material.
In order to better capture the variability, each treatment was done at least in triplicate in each plate (2 plates). Media from the triplicate wells were pooled and analysed in duplicates for the MMP-9 ELISA. A student's test was performed in excel between media with LPS and the different treatments.

[6] = tested on: differentiated THP-1 cells; test: Cell viability (WST-1); format: cell-based; conditions: 40 μg/mL
Procedure: To measure cytotoxicity of 3,6,7-trimethyllumazine at different doses, 2-(4-lodophenyl)-3-(4-nitrophenyl)-5-(2,4-disulfophenyl)-2H-tetrazolium, monosodium salt (WST-1) (Roche, 11644807001, Lot #45255800) was used. WST-1 is a cell proliferation reagent for measurement of cellular proliferation, viability, and cytotoxicity using a colorimetric assay (Gosert (2011); Peskin (2000)).
After incubation, a portion of the culture media was taken and stored for MMP-9 secretion testing using ELISA. The remaining media in the plates was then removed and 100 μl of WST-1 in RPMI-1640 media (1:10 dilution) was added to each cell well and incubated at 37° C. for a further 4 hours. The plates were then read using a plate reader at wavelength of 450 nm. Cytotoxicity was calculated as follows: • [WST-1 score for each sample/WST-1 score for the control]×100 • A WST-1 score below 80% will be considered cytotoxic.

T1 sequence (P14780 94-707): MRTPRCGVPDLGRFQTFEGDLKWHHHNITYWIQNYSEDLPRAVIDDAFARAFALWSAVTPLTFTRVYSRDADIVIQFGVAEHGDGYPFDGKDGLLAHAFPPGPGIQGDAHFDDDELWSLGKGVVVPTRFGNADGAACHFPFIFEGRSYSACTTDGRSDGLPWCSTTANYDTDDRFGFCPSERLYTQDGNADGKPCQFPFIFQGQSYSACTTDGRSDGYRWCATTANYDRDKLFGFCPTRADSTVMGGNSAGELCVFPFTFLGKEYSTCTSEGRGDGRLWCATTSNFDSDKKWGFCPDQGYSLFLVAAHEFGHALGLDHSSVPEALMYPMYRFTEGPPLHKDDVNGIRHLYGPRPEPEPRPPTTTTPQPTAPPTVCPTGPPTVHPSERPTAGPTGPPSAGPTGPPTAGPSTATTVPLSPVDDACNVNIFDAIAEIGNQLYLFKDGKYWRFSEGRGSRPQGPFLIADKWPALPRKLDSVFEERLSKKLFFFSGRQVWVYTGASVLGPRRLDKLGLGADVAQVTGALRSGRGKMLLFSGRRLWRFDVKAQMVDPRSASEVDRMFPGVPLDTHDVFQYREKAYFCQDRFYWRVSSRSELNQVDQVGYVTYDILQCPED

SMILES: Cc1nc2[nH]c(=O)n(C)c(=O)c2nc1C [3,6,7-trimethyllumazine]
- inhibition at 2.5 µg/mL (recombinant MMP-9 enzyme [1]; 2.5 μg/ml, not significant (p>0.05), read-out: percentage inhibition of MMP-9 activity): 12%
- IC50 (recombinant MMP-9 enzyme [1]; fluorometric, second-order polynomial fit of % inhibition vs concentration): 55.8 µM
- inhibition at 40 µg/mL (recombinant MMP-9 enzyme [2]; 40 μg/ml): 10%
- inhibition at 80 µg/mL (recombinant MMP-9 enzyme [2]; 80 μg/ml): 10%
- percentage inhibition of gelatinase activity (densitometry) (active MMP-9): 31%
- percentage inhibition of gelatinase activity (densitometry) [3]: 17%
- initial 3,6,7-trimethyllumazine amount recovered in the digesta [4]: ~100%
- reduction of MMP-9 secretion ([5]; 30 μg/mL): 23%
- reduction of MMP-9 secretion ([5]; 40 μg/mL): 38%
- WST-1 score (cell viability; below 80% considered cytotoxic) [6]: 79.8%

SMILES: COc1ccc(S(=O)(=O)N(CC(=O)NO)CC(C)C)cc1 [NNGH, N-isobutyl-N-[4-methoxyphenylsulfonyl]glycyl hydroxamic acid, reference compound]
- change in fluorescence intensity (MMP-9 activity) (recombinant MMP-9 enzyme [1]; NNGH inhibitor control): almost no change in fluorescence

SMILES: CC[C@H]1OC(=O)[C@H](C)[C@@H](O[C@H]2C[C@@](C)(OC)[C@@H](O)[C@H](C)O2)[C@H](C)[C@@H](O[C@@H]2O[C@H](C)C[C@H](N(C)C)[C@H]2O)[C@](C)(O)C[C@@H](C)CN(C)[C@H](C)[C@@H](O)[C@]1(C)O [Azithromycin, reference compound]
- effect on MMP-9 secretion ([5]; 6 μM positive control, absolute values, P=0.00): inhibits mmp-9 secretion
